The text below walks through data of patent US4971967A, “Quinolinecarboxylic acid derivatives, antibacterial compositions and use” (Kanebo Ltd, priority 1989, dated 1990).

Holding throughout (type): cell-based
For experiment [1], the system named is Citrobacter freundii NIHJ 10018-68. Description: Antibacterial activity (MIC), Citrobacter freundii NIHJ 10018-68. Particulars: Citrobacter freundii, NIHJ10018, Citrobacter freundii NIHJ 10018-68, Gram -; read-out: Minimum inhibitory concentration (MIC). The method in brief: (§1)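 MIC determined by the Japan Society of Chemotherapy standard method. Compounds dissolved at 5000 μg/ml (stock) in 0.1 N NaOH or sterile water, then diluted with sterile water to a 1000 μg/ml standard solution.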

Experiment [2] has as its system Pseudomonas aeruginosa E-2. Description: Antibacterial activity (MIC), P. aeruginosa E-2. To be noted: E2; Pseudomonas aeruginosa E-2, Gram -; read-out: Minimum inhibitory concentration (MIC). The procedure, abridged:
as §1

Experiment [3] concerns Bacillus subtilis ATCC 6633. Put plainly: Antibacterial activity (MIC), Bacillus subtilis ATCC 6633. The method in brief:
as §1

The next experiment deals with Escherichia coli KC-14. Description: Antibacterial activity (MIC), E. coli KC-14. To be noted: KC14; Escherichia coli KC-14, Gram -; read-out: Minimum inhibitory concentration (MIC). The procedure, abridged: as §1
In experiment [4] the test system is Pseudomonas aeruginosa NCTC 10490. Description: Antibacterial activity (MIC), P. aeruginosa NCTC 10490. To be noted: Pseudomonas aeruginosa, NCTC10490, Pseudomonas aeruginosa NCTC 10490, Gram -; read-out: Minimum inhibitory concentration (MIC). The method in brief: as §1
The test system of experiment [5] is Micrococcus luteus ATCC 9341. Description: Antibacterial activity (MIC), Micrococcus luteus ATCC 9341. To be noted: ATCC9341; Micrococcus luteus ATCC 9341, Gram +; read-out: Minimum inhibitory concentration (MIC). The procedure, abridged: as §1
In experiment [6] the test system is Salmonella typhimurium IID 971. Description: Antibacterial activity (MIC), Salmonella typhimurium IID 971. Particulars: Salmonella enterica; Salmonella typhimurium IID 971, Gram -; read-out: Minimum inhibitory concentration (MIC). The method in brief:
as §1

Experiment [7] deals with Streptococcus faecalis IID 682. Put plainly: Antibacterial activity (MIC), Streptococcus faecalis IID 682. To be noted: Enterococcus faecalis, IID682, Streptococcus faecalis IID 682, Gram +; read-out: Minimum inhibitory concentration (MIC). The method in brief: as §1
Experiment [8] deals with Acinetobacter calcoaceticus AC 54. Description: Antibacterial activity (MIC), Acinetobacter calcoaceticus AC 54. To be noted: Acinetobacter calcoaceticus, AC54, read-out: Minimum inhibitory concentration (MIC), Acinetobacter calcoaceticus AC 54, Gram -. The procedure, abridged: as §1
Experiment [9] relates to Proteus mirabilis IFO 3849. Put plainly: Antibacterial activity (MIC), Proteus mirabilis IFO 3849. To be noted: IFO3849; Proteus mirabilis IFO 3849, Gram -; read-out: Minimum inhibitory concentration (MIC). The procedure, abridged:
as §1

Experiment [10] deals with Pseudomonas aeruginosa IFO 3445. Description: Antibacterial activity (MIC), P. aeruginosa IFO 3445. Particulars: Pseudomonas aeruginosa, IFO3445, Pseudomonas aeruginosa IFO 3445, Gram -; read-out: Minimum inhibitory concentration (MIC). The method in brief: as §1

≈ marks a conversion by molar mass, not a printed value.

On to `CN1CCN(c2c(F)cc3c(=O)c(C(=O)O)c4scc5n4c3c2N(C)C5)CC1` [Compound (A), 9,1-(Methylimino)methano-7-fluoro-8-(4-methyl-1-piperazinyl)-5-oxo-5H-thiazolo[3,2-a]quinoline-4-carboxylic acid], for which the MIC in [1] was found to be 0.2 mg/L (≈ 0.497 µM); in [2] it was 0.78 mg/L (≈ 1.94 µM); with Escherichia coli KC-14, 0.05 mg/L (≈ 0.124 µM); in experiment [4], 0.2 mg/L (≈ 0.497 µM); in experiment [5], 0.39 mg/L (≈ 0.969 µM); in experiment [6], 0.05 mg/L (≈ 0.124 µM). Further, the MIC in experiment [7] was 0.1 mg/L (≈ 0.248 µM); in experiment [8] it was 0.025 mg/L (≈ 0.0621 µM); in [9], 0.2 mg/L (≈ 0.497 µM); in [10], 0.39 mg/L (≈ 0.969 µM). In experiment [3] (Bacillus subtilis ATCC 6633, Gram +), the “Minimum inhibitory concentration (MIC)” value was determined as 0.006 mg/L.

Regarding `CCN1CCN(c2c(F)cc3c(=O)c(C(=O)O)c4scc5n4c3c2N(C)C5)CC1` [Compound (J), 9,1-(Methylimino)methano-7-fluoro-8-(4-ethyl-1-piperazinyl)-5-oxo-5H-thiazolo[3,2-a]quinoline-4-carboxylic acid], the MIC in experiment [1] is 0.39 mg/L (≈ 0.936 µM); in experiment [2] it was 0.78 mg/L (≈ 1.87 µM); in experiment [3] (Bacillus subtilis, ATCC6633, Bacillus subtilis ATCC 6633, Gram +, read-out: Minimum inhibitory concentration (MIC)) it was 0.025 mg/L (≈ 0.06 µM); in experiment [4], 0.39 mg/L (≈ 0.936 µM); in experiment [5], 0.39 mg/L (≈ 0.936 µM); in experiment [7], 0.1 mg/L (≈ 0.24 µM). Besides, the MIC in [9] is 0.39 mg/L (≈ 0.936 µM); in experiment [10] it was 0.78 mg/L (≈ 1.87 µM).
